# Source: patent US20250134860A1, “NOVEL COMPOUND, AND COMPOSITION FOR PREVENTING, ALLEVIATING OR TREATING BACTERIAL INFLAMMATION AND INFLAMMASOME-MEDIATED DISEASES, COMPRISING SAME AS ACTIVE INGREDIENT” (Quorum Bio Co., Ltd., priority 2022, published 2025)
# Columns and labels:
# [1] = Plasma stability in human plasma (LC-MS/MS); format: in vitro ADME; details: 37° C., 0, 30, 60, 120, 240 minutes
# Description: (§1) The compounds of Examples 1-2 and Comparative Example, and the substance used as the positive control (Eucatropine, Loterpresnol) were dissolved in DMSO to prepare a stock solution having a concentration of 10 mM. The stock solution of each test substance was then diluted to prepare 0.2 mM and 1 mM working solutions and used for the test (For the comparative example compound, 70% acetonitrile was used as a solvent, and for the compound of Example 1-2, 50% acetonitrile was used as a solvent).
# (§2) The positive control and the standard solution of the test substance were placed in tubes containing two types of plasma (human and rat) at concentrations of 1 μM and 5 μM, respectively, and then incubated at 37° C. for a prescribed time (0, 30, 60, 120, 240 minutes) while shaking and mixing. At each time point, the mixture sample was dispensed in 100 μl increments into a cell culture plate (96-well plate) containing 400 μl of quench reagent to terminate the test, After centrifugation (5000×g, 10 min), 100 μl of the supernatant was taken out, mixed with 200 μl of ultrapure water, and the solution was then injected into a LC-MS/MS system to analyze the drug in each time zone. Thereby, the plasma stability of the compounds of Comparative Example and Example 1-2 was evaluated.
# [2] = Plasma stability in rat plasma (LC-MS/MS); format: in vitro ADME; details: 37° C., 0, 30, 60, 120, 240 minutes
# Description: as §1, §2
# [3] = tested on: gingipain genes (rgpA, rgpB, kgp); assay: Inhibitory effect on gingipain expression of P. gingivalis (RT-qPCR); format: cell-based, Porphyromonas gingivalis; details: DPD 10 μM + compound 2 μM; 48 hours; normalized to 16s rRNA
# Description: The compounds of Examples were respectively treated onto the medium cultured with P. gingivalis, and the expression levels of three gingipain proteins (lysine-gingipain (Kgp), arginine-gingipain A (RgpA), and arginine-gingipain B (RgpB)) produced by P. gingivalis, which are major virulence factors and proteolytic enzymes, were confirmed.
# The culture medium containing 10 μM of DPD (4,5-dihydroxy-2,3-pentane dione), which is a precursor of the bacterial signal substance (Autoinducer-2), and the culture medium containing 2 μM of the example compound or not were respectively dispensed into a cell culture plate (48 well plate), and then P. gingivalis (2×10^8 cell/ml) were inoculated for each group. The culture medium cultured with bacteria was cultured at 37° C. under anaerobic conditions (10% H2, 10% CO2, and 80% N2) for 48 hours.
# After 48 hours, each culture medium was centrifuged at 13,000 rpm for 1 minute to remove the supernatant, and total RNA was extracted using easy-BLUE™ Total RNA Extraction kit (iNtRON Biotechnology, Sungnam, Korea) to synthesize cDNA, and then the expression of the gingipain gene was confirmed by real-time PCR method. cDNA was synthesized using AccuPower® CycleScript RT PreMix dN6 (Bioneer, Daejeon, Korea), and real-time (quantitative) reverse transcription PCR (RT-qPCR) was carried out using Power SYBR™ Green PCR Master Mix (Applied Biosystems, Foster City, CA, USA).
# RT-qPCR amplification conditions were as follows: after enzyme activation at 95° C. for 3 minutes, denaturation at 95° C. for 10 seconds and primer annealing at 60° C. for 30 seconds were repeated 40 times, and analysis was performed using a Bio-Rad CFX Connect Real-Time PCR Detection System (Bio-Rad, Hercules, CA, USA). To normalize the expression level of the gingipain gene, the 16s rRNA gene was used, and the gene expression level was calculated using the Comparative Ct Method (ΔΔCt), which is shown in FIGS. 5a to 5c.
# [4] = tested on: E. coli (KCTC 2571 (ATCC 8739)); assay: Inhibitory effect on E. coli biofilm formation; format: cell-based, Escherichia coli; details: 0.006-4.8 μg/ml; 48 hours; compared with control (CT)
# Description: The inhibitory effect of the compound of Example 1-2 on biofilm formation in E. coli (KCTC 2571 (ATCC 8739); available from the Korean Collection for Oral Microbiology (KCOM)) was confirmed.
# Sterilized cover glass slips (round, 12 mm radius) were placed individually at a bottom of each well of a cell culture plate (24-well plate) using forceps, and the compound of Example 1-2 was diluted in the medium (LB medium) to be cultured with bacteria so that the final concentrations were 0.006 μg/ml, 0.06 μg/ml, 0.6 μg/ml, 1.2 μg/ml, 2.4 μg/ml, and 4.8 μg/ml.
# The prepared culture medium was dispensed into a cell culture plate in which glass slips were placed, and the bacteria were inoculated to a concentration of 2×10^7 cells/ml. […]
# The biofilm in which bacteria cultured for each group were formed on glass slips was stained with 1% crystal violet solution for 15 minutes, and then washed three times with PBS (phosphate buffered saline) solution, and decolorized with acetone-alcohol (20:80, vol/vol). After the decolorizing solution containing crystal violet was put in 200 μl increments in a 96-well microplate for each group, the absorbance (OD590nm) was measured using an absorbance microplate reader (Epoch2, Bio-Tek, USA), and the biofilm formation levels were compared.
# P. aeruginosa = assay: Inhibitory effect on biofilm formation in P. aeruginosa; format: cell-based, Pseudomonas aeruginosa; details: 0.006, 0.06, 0.6 μg/ml; 48 hours; compared with control (CT)
# Description: The inhibitory effect of the compound of Example 1-2 on biofilm formation in P. aeruginosa (available from the Korean Collection for Oral Microbiology (KCOM)) and A. baumannii (available from the Korea Culture Center of Microorganisms (KCCM)) was confirmed.
# Sterilized cover glass slips (round, 12 mm radius) were placed individually at a bottom of each well of a cell culture plate (24-well plate) using forceps, and the compound of Example 1-2 was diluted in the medium (P. aeruginosa: LB medium, A. baumannii: NB medium) cultured with bacteria so that the final concentrations were 0.006 μg/ml, 0.06 μg/ml, and 0.6 μg/ml.
# The prepared culture medium was dispensed into a cell culture plate in which glass slips were placed, and the respective bacteria were inoculated to a concentration of 2×10^7 cells/ml. […]
# The biofilm in which bacteria cultured for each group were formed on glass slips was stained with 1% crystal violet solution for 15 minutes, and then washed three times with PBS (phosphate buffered saline) solution, and decolorized with acetone-alcohol (20:80, vol/vol). After the decolorizing solution containing crystal violet was put in 200 μl increments in a 96-well microplate for each group, the absorbance (OD590nm) was measured using an absorbance microplate reader (Epoch2, Bio-Tek, USA), and the biofilm formation level was compared.
compound,measurement,setting,value
"Cc1ccc(C(=C2c3ccccc3C(=O)N2C)c2ccc(C)cc2)cc1 [Example 1-2, 3-(di-p-tolylmethylene)-2-methylisoindolin-1-one]",amount of the compound remaining in the plasma,[1],remained stable
same,amount of the compound remaining in the plasma,[2],remained stable
same,"expression levels of three gingipain genes (rgpA, rgpB, kgp) increased by DPD",[3],reduced
same,biofilm formation of E. coli,[4],significantly suppressed in a concentration-dependent manner
same,biofilm formation of P. aeruginosa,P. aeruginosa,significantly suppressed in a concentration-dependent manner
